# Measurements reported in patent US10294226B2, “Small molecule inhibitors of the JAK family of kinases” (Janssen Pharmaceutica NV, priority 2016, dated 2019).
# Tests used:
# [1] = Polymorph screening, physical stability of crystalline embodiments of compound Ex. 1; assay type: physicochemical; conditions: for physical stability of solid form after AAC: 2 days at 40° C./70% RH, HT-XRPD; for physical stability of solid form: ambient conditions; for physical stability of solid form in climate chamber: four days, HR-XRPD
# Procedure: Long term slurry experiments were performed by suspending compound embodiment 1s in twenty neat solvents and stirred at room temperature for two weeks and at 50° C. for one week. Upon completion of the equilibration time, the residual solids were separated from the mother liquors. The solids were dried under ambient conditions and dried under vacuum (5 mBar) before being analyzed by HT-XRPD. Subsequently, the solids were exposed to accelerated aging conditions (40° C./70% relative humidity) for two days and again analyzed by HT-XRPD.
# Embodiment 1s converted to hydrated embodiment 10 when it was exposed to 100% RH at 25° C. […] This behavior is attributable to an unequally strong binding of all the hydration/solvation molecules. In this case, embodiment 10 would have a less strongly bound second water molecule that would be lost under ambient conditions. More precisely, the physical stability of embodiment 1s was investigated in climate chambers by exposing a 20 mg sample of such embodiment to 40° C. and 70% relative humidity for four days, and another 20 mg sample of the same embodiment was exposed also for four days to 25° C. and 100% relative humidity. After four days, the various solid samples were analyzed by HR-XRPD, the crystal cell parameters were determined and the diffractograms were indexed. From bottom to top, the first diffractogram in FIG. 6 corresponds to embodiment 1s as starting material, and the second corresponds to the same form after a 4-day exposure to 40° C. and 70% relative humidity, noted as “1s 70 RH” in the same figure. […] Indexing for such form was not possible due to the small amount in which it was present. The third diffractogram corresponds to embodiment 1s after a 4-day exposure to 25° C. and 100% relative humidity, noted as “10” in the same figure. […] Upon dehydration, both embodiments 1s and 10 re-crystallized to the anhydrous form with a melting point of 148° C.
# The mother liquors of the solvent equilibration experiments performed at 50° C. were filtered at 50° C. to remove any particulate matter. The suspensions at 50° C. were filtered using 0.2 μm PTFE filters, and the solutions were placed at 5° C. and aged for 72 hours. When solids had precipitated during aging these solids were separated from the liquid, dried under ambient conditions and under vacuum, and analyzed by HT-XRPD. The remaining mother liquors were allowed to slowly evaporate and the remaining solids were analyzed by HT-XRPD. The samples in which no precipitation occurred were placed under vacuum and the dried solids were analyzed by HT-XRPD. All the solids were then exposed to AAC (2 days at 40° C./70% RH) and re-analyzed by HT-XRPD.
# The cooling/evaporative crystallization experiments at μL scale were performed in a 96-well plate, using 12 neat solvents and 12 solvent mixtures and applying four temperature profiles. In each well approximately 4 mg of embodiment 1s was solid dosed. Subsequently, the crystallization solvents (80 μL) and solvent mixtures were added to reach a concentration of 50 mg/mL, and the plate, with each well individually sealed, to subsequently undergo one of the four temperature profiles. Upon completion of the temperature profile the solvents were allowed to evaporate at low ambient pressure (24 hours) and the remaining solids were analyzed by HT-XRPD before and after exposure to AAC for 2 days (40° C./70% RH).
# The cooling crystallization experiments with hot filtration were performed from supersaturated solutions of compound Ex. 1 prepared at 50° C. in different solvent mixtures. The hot filtrated solutions underwent a 48-hour cooling profile. The vials in which solids had precipitated after the temperature profile were centrifuged and the solids were separated from the liquid and analyzed by HT-XRPD (after drying under vacuum). If no solids had precipitated the solutions were evaporated under vacuum and the solids analyzed by HT-XRPD. […]
# [2] = In vivo oral (p.o.) dosing, plasma and colon concentrations (Protocols 1 and 2); set-up: species or system female C57BL/6 mice; conditions: mice, 25 mg/kg p.o.
# Procedure: These protocols are described below under the heading In vivo Studies. Three non-fasted female C57BL/6 mice were orally administered test compound at a dose of 25 mg/kg p.o. as a solution in 20% hydroxypropyl-beta-cyclodextrin (HPβCD) at a dose volume of 5 mL/kg. Blood samples were collected at 0.5, 2, and 4 h post dose via retro-orbital bleed or venipuncture of the dorsal metatarsal vein. Blood samples were collected into tubes containing anticoagulant (Heparin-Na) and placed on wet ice. […] Colon samples were collected at 4 h post dose. […] The colon was further washed by putting it in 5 mL of saline and shaken for 5 seconds. The colon sample was then patted dry, weighed, and homogenized as 1 part tissue (g) to 4 parts HPLC grade water (mL). Concentrations of the compound in plasma and colon homogenate were determined using a qualified liquid chromatography-triple quadrupole mass spectrometry (LC-MS/MS) method. […] Three non-fasted female C57BL/6 mice were orally administered test compound at a dose of 25 mg/kg p.o. as a solution in 20% HPβCD at a dose volume of 5 mL/kg. Blood samples were collected at 0.5, 2, and 4 h post dose via retro-orbital bleed or dorsal metatarsal vein. Blood samples were collected into tubes containing anticoagulant (Heparin-Na) and placed on wet ice. […] Colon samples were collected at 4 h post dose. […] The colon was further washed by putting it in 5 mL of saline and shaken for 5 seconds. The colon sample was then patted dry, weighed, and homogenized as 1 part tissue (g) to 4 parts HPLC grade water (mL). Concentrations of the compound in plasma and colon homogenate were determined using a qualified liquid chromatography-triple quadrupole mass spectrometry (LC-MS/MS) method.
# Tyk2-JH1JH2 = Tyk2-JH1JH2 (Homo sapiens (Human), UniProt P29597, C1142A/C936A); assay: Enzymatic inhibition assay (HTMS); assay type: biochemical; conditions: read-out: Tyk2_I_JH1JH2 IC50
# Tyk2-JH1JH2, sequence (P29597 580-1182 C936A/C1142A): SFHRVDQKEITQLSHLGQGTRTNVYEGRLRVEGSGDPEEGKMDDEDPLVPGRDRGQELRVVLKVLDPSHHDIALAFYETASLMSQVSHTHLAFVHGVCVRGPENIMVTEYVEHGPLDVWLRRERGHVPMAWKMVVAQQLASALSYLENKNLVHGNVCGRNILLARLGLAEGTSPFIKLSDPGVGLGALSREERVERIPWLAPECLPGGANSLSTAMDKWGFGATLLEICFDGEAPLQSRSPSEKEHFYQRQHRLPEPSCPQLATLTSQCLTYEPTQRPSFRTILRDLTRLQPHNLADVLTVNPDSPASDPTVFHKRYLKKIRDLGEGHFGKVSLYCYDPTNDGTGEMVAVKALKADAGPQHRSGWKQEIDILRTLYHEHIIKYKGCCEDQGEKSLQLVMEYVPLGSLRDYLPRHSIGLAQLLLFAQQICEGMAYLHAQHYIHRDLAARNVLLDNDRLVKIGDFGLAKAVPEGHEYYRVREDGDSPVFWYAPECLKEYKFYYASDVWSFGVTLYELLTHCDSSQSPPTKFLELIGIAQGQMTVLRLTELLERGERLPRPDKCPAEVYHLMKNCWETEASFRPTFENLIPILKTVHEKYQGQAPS
# Excerpt: (§1) JAK1-JH1JH2 (574-1154 with a His-GST Tag and a C-terminal tev (ENLYFQ-G) cleavage site), JAK3-JH1JH2 (512-1124 with a GST Tag and a C-terminal tev (ENLYFQ-G) cleavage site), and Tyk2-JH1JH2 (8H_tev_580-1182-C936A-C1142A with a C-terminal tev (ENLYFQ-G) cleavage site) were purified internally. […] LC/MS grade water and acetonitrile (ACN), were purchased from HoneyWell, Burdick & Jackson (Muskegon, Mich., USA). Dimethylsulfoxide 99.8% (DMSO) and trifluoroacetic acid 99.5% (TFA) were purchased from EMD Chemical (Gibbstown, N.J., USA). Adenosine triphosphate (ATP), 4-morpholinepropanesulfonic acid (MOPS), magnesium chloride (MgCl2), ethylenediaminetetraacetic acid (EDTA), dithiothreitol (DTT), formic acid>95% (FA) and Tween-20 were purchased from Sigma (St Louis, Mo., USA). 384-well polypropylene plates, Cat#781280 were purchased from Greiner (Monroe, N.C.), RapidFire™ cartridge A C4 Column (Agilent Technologies, Santa Clara, Calif.).
# (§2) The HTMS experiments were performed in positive ionization mode on a RapidFire 300 instrument (Agilent Technologies, Santa Clara, Calif.), coupled with an ABSiex QTrap 4000 system with an Electrospray Ionization source (RF-MS) (Concord, ON, Canada). […] The entire system was operated using the RapidFire software interfaced with Analyst software for the mass spectrometer.
# (§3) 11-point dosing series were made for each compound by serially diluting 1:3 or 1:4 in DMSO, with point 12 being a DMSO control. From the serial dilution plates, sample was transferred to a 384 wells assay plate (#781280, Greiner, Monroe, N.C.) using Labcyte Echo (Sunnyvale, Calif.), or Biosero ATS (San Diego, Calif.). The compounds were tested in duplicate. Column 12 was used for positive controls, and column 24 contained negative controls with no enzyme added. A compound from our internal collection, with inhibitory activity for JAK isoforms, was used as a reference compound. The final concentration of DMSO was ≤0.25% in a 20 μL reaction. The enzyme reaction was initiated by the addition of 10 μL of enzyme and ATP mixture to 10 μL of substrate solution prepared in reaction buffer (50 mM MOPS pH 7.5, 10 mM MgCl2, 1 mM EDTA, 2 mM DTT, 0.002% Tween-20). The Tyk2 enzyme was pre-incubated with 2 mM ATP for 30 min prior to the reaction initiation. Immediately after the addition of the enzyme to the reaction mixture, the plate was centrifuged at 1000 rpm for 1 minute and incubated at 25° C. for 45 minutes for JAK3 and 90 minutes for JAK1, JAK2 and Tyk2. The reaction was quenched by the addition of 20 μL of 0.5% TFA containing 0.15 μM of internal standard peptide using Multidrop Combi reagent dispenser (Thermo Scientific, Waltham, Mass.). […] After the quench, the assay plate was centrifuged at 3000 rpm for 3 minutes and sealed with pierceable aluminum foil (Cat#06644-001, Agilent) using a PlateLoc (Agilent Technologies, Santa Clara, Calif.). The plates then were transferred on to the RapidFire for the MS analysis. Compound inhibition was assessed by a decrease of the phosphorylated product levels in sample wells compared to the non-inhibited enzyme reaction.
# (§4) The sample analysis on the RapidFire was performed using a mobile phase A1 consisting of Water/TFA/FA (100:0.01:0.1, v/v/v), a mobile phase B1 consisting of ACN/Water/TFA/FA (80:20:0.01:0.1, v/v/v). […] The samples were aspirated directly from the 384-well assay plate and delivered onto RF-MS microscale solid-phase C4 extraction cartridge (Type A). The undesired component such as salt, cofactor, detergent and large protein were washed out and the retained analytes (substrate, product and IS) were coeluted directly onto the AB Siex Qtrap 4000 system.
# JAK3-JH1JH2 = JAK3-JH1JH2 (Homo sapiens (Human), UniProt P52333); assay: Enzymatic inhibition assay (HTMS); assay type: biochemical; conditions: 150 μM ATP; read-out: JAK3_I_JH1JH2 IC50
# JAK3-JH1JH2, sequence (P52333 512-1124): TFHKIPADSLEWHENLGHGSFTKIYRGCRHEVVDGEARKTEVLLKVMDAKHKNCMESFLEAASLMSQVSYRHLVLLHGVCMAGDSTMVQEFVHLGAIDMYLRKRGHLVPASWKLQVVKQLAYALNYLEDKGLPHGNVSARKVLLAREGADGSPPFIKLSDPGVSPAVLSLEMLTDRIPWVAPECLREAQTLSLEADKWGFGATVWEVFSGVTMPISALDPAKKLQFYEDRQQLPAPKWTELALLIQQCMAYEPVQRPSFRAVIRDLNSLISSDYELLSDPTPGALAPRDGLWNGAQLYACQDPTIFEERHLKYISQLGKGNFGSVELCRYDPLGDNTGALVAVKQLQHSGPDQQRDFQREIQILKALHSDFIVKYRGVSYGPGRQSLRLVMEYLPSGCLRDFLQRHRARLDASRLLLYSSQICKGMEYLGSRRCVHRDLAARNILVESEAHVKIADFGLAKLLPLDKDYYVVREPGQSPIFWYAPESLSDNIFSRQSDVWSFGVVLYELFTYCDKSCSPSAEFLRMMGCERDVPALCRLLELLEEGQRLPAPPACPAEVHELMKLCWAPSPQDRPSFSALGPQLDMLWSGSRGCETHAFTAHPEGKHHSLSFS
# Excerpt: as §1, §2, §3, §4
# JAK1-JH1JH2 = JAK1-JH1JH2 (Homo sapiens (Human), UniProt P23458); assay: Enzymatic inhibition assay (HTMS); assay type: biochemical
# JAK1-JH1JH2, sequence (P23458 574-1154): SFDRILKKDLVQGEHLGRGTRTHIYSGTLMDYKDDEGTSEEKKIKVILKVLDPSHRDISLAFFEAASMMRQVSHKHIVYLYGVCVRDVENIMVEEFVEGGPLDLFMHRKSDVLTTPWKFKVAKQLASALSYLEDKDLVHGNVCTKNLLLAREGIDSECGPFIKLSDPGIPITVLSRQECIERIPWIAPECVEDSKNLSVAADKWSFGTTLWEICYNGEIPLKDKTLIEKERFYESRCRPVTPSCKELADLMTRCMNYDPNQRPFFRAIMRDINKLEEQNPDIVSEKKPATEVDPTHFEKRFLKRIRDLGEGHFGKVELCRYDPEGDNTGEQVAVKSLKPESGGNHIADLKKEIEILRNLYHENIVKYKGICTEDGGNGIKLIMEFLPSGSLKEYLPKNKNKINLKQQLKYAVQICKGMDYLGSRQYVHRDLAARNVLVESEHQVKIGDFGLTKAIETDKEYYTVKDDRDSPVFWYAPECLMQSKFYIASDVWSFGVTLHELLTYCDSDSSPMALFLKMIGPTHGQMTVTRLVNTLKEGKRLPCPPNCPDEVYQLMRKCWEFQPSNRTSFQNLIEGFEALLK
# Excerpt: as §1, §2, §3, §4
# JAK2-JH1JH2 = JAK2-JH1JH2 (Homo sapiens (Human), UniProt O60674); assay: Enzymatic inhibition assay (HTMS); assay type: biochemical; conditions: read-out: JAK2_I_JH1JH2 IC50
# Excerpt: as §1, §2, §3, §4
# physchem = conditions: thermodynamic from solid
# MDCK-MDR1 cell line = assay: MDCK-MDR1 permeability assay; assay type: in vitro ADME; conditions: @ 5 μM, apical to basolateral, with P-gp inhibitor elacridar (2 μM)
# P-gp (MDR1) = assay: MDCK-MDR1 permeability assay; assay type: in vitro ADME; conditions: dog
smiles,measurement,setting,value
CC(C)(O)CNC(=O)Cc1nc2cnc3[nH]ccc3c2n1[C@H]1CC[C@H](CC#N)CC1 [Embodiment 5],physical stability of solid form after AAC,[1],physically unstable
"C[C@@H](O)c1nc2cnc3[nH]ccc3c2n1[C@H]1CC[C@H](CC#N)CC1 [C, reference compound]","Plasma Concentration After p.o. Dosing, Mean",[2]; Time = 0.5 h,[…]
same,IC50,Tyk2-JH1JH2,0.2 nM
same,IC50,JAK3-JH1JH2,49.7 nM
same,IC50,JAK1-JH1JH2,< 0.2 nM
same,solubility,"physchem; pH 6.5, fassif",> 400 µM
same,solubility,physchem; simulated gastric fluid,> 400 µM
same,MDCK-MDR1 P^eapp(A-B),MDCK-MDR1 cell line,2.5 10^−6 cm/sec
same,"Papp A→B at 60 min, 5 μM","P-gp (MDR1); MDCK-MDR1, pH 7.4, @ 5 μM, apical to basolateral, without elacridar, read-out: MDCK-MDR1 Papp(A-B)",0.5 ×10⁻⁶ cm/s
same,"Papp B→A at 60 min, 5 μM","P-gp (MDR1); MDCK-MDR1, pH 7.4, @ 5 μM, basolateral to apical",23.1 ×10⁻⁶ cm/s
CC(C)(O)CNC(=O)Cc1nc2cnc3[nH]ccc3c2n1[C@H]1CC[C@H](CC#N)CC1 [Embodiment 7],physical stability of solid form after AAC,[1],physically stable
CC(C)(O)CNC(=O)Cc1nc2cnc3[nH]ccc3c2n1[C@H]1CC[C@H](CC#N)CC1 [embodiment 10],physical stability of solid form,[1],physically not stable
CC(C)(O)CNC(=O)Cc1nc2cnc3[nH]ccc3c2n1[C@H]1CC[C@H](CC#N)CC1 [embodiment 2],physical stability of solid form after AAC,[1],converted to embodiment 3e
CC(C)(O)CNC(=O)Cc1nc2cnc3[nH]ccc3c2n1[C@H]1CC[C@H](CC#N)CC1 [Embodiment 4],physical stability of solid form,[1],did not appear to be physically stable
CC(C)(O)CNC(=O)Cc1nc2cnc3[nH]ccc3c2n1[C@H]1CC[C@H](CC#N)CC1 [embodiment 1s],physical stability of solid form in climate chamber,[1]; 25° C. and 100% relative humidity,conversion of embodiment 1s into embodiment 10
same,physical stability of solid form in climate chamber,[1]; 40° C. and 70% relative humidity,initial embodiment 1s had been recovered
CC(C)(O)CNC(=O)Cc1nc2cnc3[nH]ccc3c2n1[C@H]1CC[C@H](CC#N)CC1 [Embodiment 6],physical stability of solid form after AAC,[1],stable solid form
